From patent US12662490B2, “Heterocyclic compounds” (Hoffmann-La Roche Inc., priority 2019, dated 2026)

Target: T1, MAGL (Homo sapiens, UniProt Q99685)
T1 sequence (Q99685 1-303): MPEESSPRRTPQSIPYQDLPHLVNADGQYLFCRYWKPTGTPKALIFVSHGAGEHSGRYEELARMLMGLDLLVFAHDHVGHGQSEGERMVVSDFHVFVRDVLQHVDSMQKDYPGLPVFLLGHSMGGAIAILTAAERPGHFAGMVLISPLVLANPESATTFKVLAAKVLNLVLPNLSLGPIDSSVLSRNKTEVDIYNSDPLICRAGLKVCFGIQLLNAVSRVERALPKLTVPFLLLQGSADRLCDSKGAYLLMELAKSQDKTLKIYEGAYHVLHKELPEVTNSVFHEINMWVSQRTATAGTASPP
Experiment: 2-AG assay (MAGL inhibitory activity; hydrolysis of 2-arachidonoylglycerol to arachidonic acid followed by mass spectrometry)
Assay type: biochemical
Details: 15 min preincubation at RT, 8 μM 2-arachidonoylglycerol, 30 min at RT, RapidFire MS readout
Procedure: Compounds were profiled for MAGL inhibitory activity by determining the enzymatic activity by following the hydrolysis of the natural substrate 2-arachidonoylglycerol (2-AG) resulting in arachidonic acid, which can be followed by mass spectrometry. This assay is hereinafter abbreviated “2-AG assay”.
The 2-AG assay was carried out in 384 well assay plates (PP, Greiner Cat #784201) in a total volume of 20 μL. Compound dilutions were made in […] (VWR Chemicals 23500.297) in a polypropylene plate in 3-fold dilution steps to give a final concentration range in the assay from 12.5 μM to […]. 0.25 μL compound dilutions (100% DMSO) were added to 9 μL MAGL in assay buffer (50 mM TRIS (GIBCO, 15567-027), 1 mM EDTA (Fluka, 03690-100 mL), 0.010 (v/v) Tween. After shaking, the plate was incubated for 15 min at RT. To start the reaction, 10 μL 2-arachidonoylglycerol in assay buffer was added. The final concentrations in the assay was […] and 8 μM 2-arachidonoylglyerol. After shaking and 30 min incubation at RT, the reaction was quenched by the addition of 40 μL of ACN containing 4 μM of d8-arachidonic acid. The amount of arachidonic acid was traced by an online SPE system (Agilent Rapidfire) coupled to a triple quadrupole mass spectrometer (Agilent 6460). A C18 SPE cartridge (G9205A) was used in an ACN/water liquid setup. The mass spectrometer was operated in negative electrospray mode following the mass transitions 303.1→259.1 for arachidonic acid and 311.1→267.0 for d8-arachidonic acid. The activity of the compounds was calculated based on the ratio of intensities [arachidonic acid/d8-arachidonic acid].

IC50 | SMILES
133 nM | COc1cccc(C(=O)N2CCN3C[C@@H](c4cc(C(F)(F)F)c(F)cn4)OC[C@@H]3C2)c1Cl [Example 101, (2-chloro-3-methoxy-phenyl)-[(3S,9aS)-3-[5-fluoro-4-(trifluoromethyl)-2-pyridyl]-3,4,6,7,9,9a-hexahydro-1H-pyrazino[2,1-c][1,4]oxazin-8-yl]methanone]
142 nM | O=C(c1cc(F)cc(-c2c[nH]nc2F)c1Cl)N1CCN2C[C@@H](c3cc(Cl)c[nH]c3=O)OC[C@@H]2C1 [Example 133, 3-[(3R,9aS)-8-[2-chloro-5-fluoro-3-(3-fluoro-1H-pyrazol-4-yl)benzoyl]-3,4,6,7,9,9a-hexahydro-1H-pyrazino[2,1-c][1,4]oxazin-3-yl]-5-chloro-1H-pyridin-2-one]
951 nM | COc1cccc(C(=O)N2CCN3C[C@@](O)(c4nc5ccccc5[nH]4)OC[C@@H]3C2)c1Cl (single isomer, unassigned) [Example 60]
14.3 nM | O=C(c1cccc(-c2ccc(=O)[nH]c2)c1Cl)N1CCN2C[C@@H](c3ccc(F)c(Cl)c3)OC[C@@H]2C1 [Example 106, 5-[3-[(3R,9aS)-3-(3-chloro-4-fluoro-phenyl)-3,4,6,7,9,9a-hexahydro-1H-pyrazino[2,1-c][1,4]oxazine-8-carbonyl]-2-chloro-phenyl]-1H-pyridin-2-one]
4030 nM | COc1cccc(C(=O)N2CCN3C[C@@](O)(c4nc5ccccc5n4C)OC[C@@H]3C2)c1Cl [Example 71, [(3S,9aS)-3-hydroxy-3-(1-methylbenzimidazol-2-yl)-1,4,6,7,9,9a-hexahydropyrazino[2,1-c][1,4]oxazin-8-yl]-(2-chloro-3-methoxy-phenyl)methanone]
21.6 nM | COc1cccc(C(=O)N2CCN3CC(c4ccc(F)c(Cl)c4)SC[C@@H]3C2)c1Cl (single isomer, unassigned) [Example 162]
975 nM | COc1cccc(C(=O)N2CCN3C[C@@H](c4ccc(Br)cn4)OC[C@H]3C2)c1Cl (racemic) [Example 54, (2-chloro-3-methoxy-phenyl)-[rac-(3S,9aR)-3-(5-bromo-2-pyridyl)-3,4,6,7,9,9a-hexahydro-1H-pyrazino[2,1-c][1,4]oxazin-8-yl]methanone]
94.8 nM | COc1cccc(C(=O)N2CCN3C[C@@H](c4ccc(F)c(C5CC5)c4)OC[C@@H]3C2)c1Cl [Example 24, [(3R,9aS)-3-(3-cyclopropyl-4-fluoro-phenyl)-3,4,6,7,9,9a-hexahydro-1H-pyrazino[2,1-c][1,4]oxazin-8-yl]-(2-chloro-3-methoxy-phenyl)methanone]
38.2 nM | O=C(c1cccc(-c2c[nH]nc2F)c1Cl)N1CCN2C[C@@](O)(c3ccc(C(F)(F)F)cn3)OC[C@@H]2C1 [Example 85, [(3S,9aS)-3-hydroxy-3-[5-(trifluoromethyl)-2-pyridyl]-1,4,6,7,9,9a-hexahydropyrazino[2,1-c][1,4]oxazin-8-yl]-[2-chloro-3-(3-fluoro-1H-pyrazol-4-yl)phenyl]methanone]
178 nM | COc1cccc(C(=O)N2CCN3C[C@](O)(c4ccc(F)c(Cl)c4)OC[C@H]3C2)c1Cl [Example 46, [(3S,9aR)-3-(3-chloro-4-fluoro-phenyl)-3-hydroxy-1,4,6,7,9,9a-hexahydropyrazino[2,1-c][1,4]oxazin-8-yl]-(2-chloro-3-methoxy-phenyl)methanone]
134 nM | COc1cccc(C(=O)N2CCN3CC(c4ccc5c(c4)CC5)OCC3C2)c1Cl (mixture of isomers) [Example 47, [3-(3-bicyclo[4.2.0]octa-1,3,5-trienyl)-3,4,6,7,9,9a-hexahydro-1H-pyrazino[2,1-c][1,4]oxazin-8-yl]-(2-chloro-3-methoxy-phenyl)methanone]
2310 nM | COc1cccc(C(=O)N2CCN3C[C@H](c4cc(Cl)ccn4)OC[C@@H]3C2)c1Cl [Example 90, [(3R,9aS)-3-(4-chloro-2-pyridyl)-3,4,6,7,9,9a-hexahydro-1H-pyrazino[2,1-c][1,4]oxazin-8-yl]-(2-chloro-3-methoxy-phenyl)methanone]
259 nM | COc1cccc(C(=O)N2CCN3C[C@@H](c4ccc(F)c(-c5ccccc5)c4)OC[C@@H]3C2)c1Cl [Example 11, [(3R,9aS)-3-(4-fluoro-3-phenyl-phenyl)-3,4,6,7,9,9a-hexahydro-1H-pyrazino[2,1-c][1,4]oxazin-8-yl]-(2-chloro-3-methoxy-phenyl)methanone]
76 nM | COc1cccc(C(=O)N2CCN3C[C@H](c4ccc(Br)cn4)OC[C@H]3C2)c1Cl (racemic) [Example 53, (2-chloro-3-methoxy-phenyl)-[rac-(3R,9aR)-3-(5-bromo-2-pyridyl)-3,4,6,7,9,9a-hexahydro-1H-pyrazino[2,1-c][1,4]oxazin-8-yl]methanone]
50 nM | O=C(c1cccc(-c2cnn[nH]2)c1Cl)N1CCN2C[C@@H](c3ccc(F)c(Cl)c3)OC[C@@H]2C1 [Example 44, [(3R,9aS)-3-(3-chloro-4-fluoro-phenyl)-3,4,6,7,9,9a-hexahydro-1H-pyrazino[2,1-c][1,4]oxazin-8-yl]-[2-chloro-3-(1H-triazol-5-yl)phenyl]methanone]
20.7 nM | O=C(c1cccc(-c2cn[nH]c2C(F)(F)F)c1F)N1CCN2C[C@@H](c3ccc(F)c(Cl)c3)OC[C@@H]2C1 [Example 102, [(3R,9aS)-3-(3-chloro-4-fluoro-phenyl)-3,4,6,7,9,9a-hexahydro-1H-pyrazino[2,1-c][1,4]oxazin-8-yl]-[2-fluoro-3-[5-(trifluoromethyl)-1H-pyrazol-4-yl]phenyl]methanone]
468 nM | COc1cccc(C(=O)N2CCN3C[C@@H](c4cccc(F)c4F)OC[C@@H]3C2)c1Cl [Example 149, [(3R,9aS)-3-(2,3-difluorophenyl)-3,4,6,7,9,9a-hexahydro-1H-pyrazino[2,1-c][1,4]oxazin-8-yl]-(2-chloro-3-methoxy-phenyl)methanone]
57.6 nM | Cc1[nH]c(=O)ccc1-c1cccc(C(=O)N2CCN3C[C@@H](c4ccc(F)c(Cl)c4)OC[C@@H]3C2)c1Cl [Example 124, 5-[3-[(3R,9aS)-3-(3-chloro-4-fluoro-phenyl)-3,4,6,7,9,9a-hexahydro-1H-pyrazino[2,1-c][1,4]oxazine-8-carbonyl]-2-chloro-phenyl]-6-methyl-1H-pyridin-2-one]
378 nM | COc1cccc(C(=O)N2CCN3C[C@@](O)(c4nc5ccccc5s4)OC[C@@H]3C2)c1Cl [Example 146, [(3S,9aS)-3-(1,3-benzothiazol-2-yl)-3-hydroxy-1,4,6,7,9,9a-hexahydropyrazino[2,1-c][1,4]oxazin-8-yl]-(2-chloro-3-methoxy-phenyl)methanone]
30.7 nM | COc1cccc(C(=O)N2CCN3C[C@@H](c4cc(C(F)(F)F)c(Cl)cn4)OC[C@@H]3C2)c1Cl [Example 98, (2-chloro-3-methoxy-phenyl)-[(3S,9aS)-3-[5-chloro-4-(trifluoromethyl)-2-pyridyl]-3,4,6,7,9,9a-hexahydro-1H-pyrazino[2,1-c][1,4]oxazin-8-yl]methanone]
277 nM | Cc1cccnc1-c1cccc(C(=O)N2CCN3C[C@@H](c4ccc(F)c(Cl)c4)OC[C@@H]3C2)c1Cl [Example 37, [(3R,9aS)-3-(3-chloro-4-fluoro-phenyl)-3,4,6,7,9,9a-hexahydro-1H-pyrazino[2,1-c][1,4]oxazin-8-yl]-[2-chloro-3-(3-methyl-2-pyridyl)phenyl]methanone]
